Tested on: zinc-insufficient oocytes
Experiment: Spindle phenotype scoring after IVM in TPEN with proteasome inhibitor MG132 added after 10 h
Type: cell-based, mouse
Conditions: TPEN 16 h without MG132; n=13
Protocol: For IVM studies, immature female CD1 mice (17 to 21 day old) were injected with 5IU equine chorionic gonadotropin (eCG) (Calbiochem, La Jolla, CA) in 100 μL sterile phosphate-buffered saline (PBS), intraperitoneally. After 44 to 48 hours, mice were anesthetized using isoflurane and euthanized by cervical dislocation. Dissected ovaries were placed in Leibovitz L-15 medium containing 1% FBS (L-15/FBS) and 0.2mM 3-isobutyl-1-methylxanthine (IBMX), and large antral follicles were punctured using 28 gauge needles to release cumulus oocyte complexes (COCs). COCs were washed through several drops of culture medium consisting of Minimum Essential Medium (MEM)-alpha with GLUTAMAX supplemented with 10% FBS, 1.5IU/mL human chorionic gonadotropin (hCG), and 5ng/mL epidermal growth factor and placed in culture medium with or without 10 μM N,N,N′,N′-tetrakis(2-pyridylmethyl) ethylenediamine (TPEN). In some experiments Z-Leu-Leu-Leu-al (MG132) was added to culture medium at 20 μM. COCs were cultured in drops of pre-equilibrated medium covered with embryo quality mineral oil at 37° C. in 5% CO2 with a humid environment. Ovulated MII eggs were collected from 4 to 6 week old mice primed with 5IU PMSG followed 48 h later by 5IU hCG. Oviducts were dissected into L-15/FBS, and eggs were removed and treated with 0.03% (w/v) hyaluronidase to remove cumulus cells. Eggs were washed and cultured in potassium simplex optimized medium (KSOM) (Millipore, Billerica, MA) covered with embryo quality mineral oil at 37° C. in 5% CO2.
Oocytes were denuded of cumulus cells and fixed in a microtubule stabilizing buffer (Ibanez et al., 2005) containing 2% formaldehyde and 1% Triton X-100 for 30 min at 37° C. Oocytes were washed and blocked in PBS containing 0.1M glycine, 3mg/mL BSA, 0.01% Tween 20, and 0.01% sodium azide for at least 1 h and were stored in blocking solution at 4° C. for up to 2 weeks. Oocytes were incubated with anti-tubulin antibody (1:100) for 1 h at 37C. followed by three washes in blocking solution. They were then incubated for 1 h in AlexaFluor-488 conjugated anti-mouse secondary antibody (5μg/mL) and rhodamine-phalloidin (2U/mL), washed three additional times, and mounted in VECTASHIELD with DAPI. Microscopy was performed using a Leica SP5 inverted laser-scanning confocal microscope with a 63x oil immersion objective (Leica Microsystems, Heidelberg, Germany). Images were processed using LAS AF software (Leica Microsystems).
It has been previously shown that zinc-insufficient oocytes fail to increase MPF activity following the first meiotic division and have low CCNB1 protein levels (Bernhardt et al., 2010). In order to determine whether this decrease in CCNB1 is the major cause of the observed meiotic arrest phenotype, it was tested whether increasing CCNB1 would be sufficient to rescue MII entry in zinc-insufficient oocytes by inhibiting the proteasome at the end of the MI-MII transition, thereby halting CCNB1 degradation. Experimental oocytes were cultured for 10 hours in TPEN-containing medium and were then transferred into medium containing TPEN as well as the proteasome inhibitor Z-Leu-Leu-Leu-al (MG132) at 20 μM concentration. MG132 was added after first polar body extrusion, because earlier addition would result in MI arrest due to failure to degrade APC/C targets that prevent cell division. Oocytes were cultured for an additional 6 h in the presence of MG132 to allow time for CCNB1 reaccumulation, for a total 16 h IVM culture period. Proteasome inhibition led to a partial rescue of the zinc insufficiency phenotype. 69% of treated oocytes formed spindle-like structures, and none were in telophase I arrest, despite being cultured in the presence of TPEN for the entire culture period (FIG. 2, A; Table 2).
A majority of zinc-insufficient oocytes treated with MG132 following the first meiotic division transition progress beyond telophase-I arrest and form MII spindle-like structures. […]

c1ccc(CN(CCN(Cc2ccccn2)Cc2ccccn2)Cc2ccccn2)nc1 [TPEN, N,N,N′,N′-tetrakis(2-pyridylmethyl)ethylenediamine]
MII (aligned metaphase plate): 0% | other spindle phenotype: 23% | persisting midbody or chromatin mass: 0% | spindle with chr. scattered along length: 0% | spindle with ≦3 chr. out of place: 0%

From US8772029B2, “Modulation of oocyte meiotic progression and oocyte activation” (Northwestern University, priority 2011, dated 2014)
